The values that follow come from patent US6426360B1, “4,5-substituted imidazolyl compounds for the treatment of inflammation” (G D Searle & Co., priority 1994, dated 2002).

Marks after values point to notes of the source that are not given here. A value given as a limit tells only on which side of the number the result lay.

For data set [1], the system named is carrageenan foot edema. Description: Rat Carrageenan Foot Pad Edema Test. The data set is classed as in vivo. As to conditions: 30 mg/kg body weight, oral, dosed 1 h before carrageenan, foot volume 3 h after carrageenan. As for the experimental part: The carrageenan foot edema test was performed with materials, reagents and procedures essentially as described by Winter, et al., (Proc. Soc. Exp. Biol. Med., 111, 544 (1962)). Male Sprague-Dawley rats were selected in each group so that the average body weight was as close as possible. Rats were fasted with free access to water for over sixteen hours prior to the test. The rats were dosed orally (1 ml) with compounds suspended in vehicle containing 0.5% methylcellulose and 0.025% surfactant, or with vehicle alone. One hour later a subplantar injection of 0.1 ml of 1% solution of carrageenan/sterile 0.9% saline was administered and the volume of the injected foot was measured with a displacement plethysmometer connected to a pressure transducer with a digital indicator. Three hours after the injection of the carrageenan, the volume of the foot was again measured. The average foot swelling in a group of drug-treated animals was compared with that of a group of placebo-treated animals and the. percentage inhibition of edema was determined (Otterness and Bliven, Laboratory Models for Testing NSAIDs, in Non-steroidal Anti-Inflammatory Drugs, (J. Lombardino, ed. 1985)).
In general terms: Carrageenan injected into the paw causes an acute inflammation.

Data set [2] addresses T1, Human COX II (Homo sapiens, UniProt P35354).
T1 construct: A 2.0 kb fragment containing the coding region of either human or murine COX-I or human or murine COX-II; made in house; host or cells: SF9 insect cells (recombinant baculovirus, transfer vector pVL1393)
T1 sequence (P35354 18-604): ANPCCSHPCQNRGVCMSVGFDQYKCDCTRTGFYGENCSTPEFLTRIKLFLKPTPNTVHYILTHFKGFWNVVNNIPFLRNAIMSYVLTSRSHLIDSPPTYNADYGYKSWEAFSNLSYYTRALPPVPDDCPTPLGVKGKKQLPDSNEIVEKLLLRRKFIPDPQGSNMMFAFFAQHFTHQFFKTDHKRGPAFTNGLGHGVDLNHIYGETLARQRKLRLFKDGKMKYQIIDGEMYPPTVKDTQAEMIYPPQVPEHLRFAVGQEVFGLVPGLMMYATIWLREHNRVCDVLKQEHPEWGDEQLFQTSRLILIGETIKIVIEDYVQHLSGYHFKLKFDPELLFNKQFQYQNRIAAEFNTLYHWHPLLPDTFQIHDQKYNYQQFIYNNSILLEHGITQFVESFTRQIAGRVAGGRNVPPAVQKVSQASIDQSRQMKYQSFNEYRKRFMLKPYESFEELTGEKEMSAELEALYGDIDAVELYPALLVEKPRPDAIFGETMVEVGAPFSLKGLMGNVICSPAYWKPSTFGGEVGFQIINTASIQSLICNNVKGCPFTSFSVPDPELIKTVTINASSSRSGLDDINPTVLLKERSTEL
The data set can be described thus: COX II activity in vitro (PGE2 ELISA, recombinant enzyme). The data set is classed as biochemical. Conditions: arachidonic acid 10 μM, pre-incubation 10-20 minutes; read-out: Human COX II ID50. As for the experimental part: The COX II inhibition activity of the compounds of this invention illustrated in the Examples was determined by the following methods.
(§1) A 2.0 kb fragment containing the coding region of either human or murine COX-I or human or murine COX-II was cloned into a BamH1 site of the baculovirus transfer vector pVL1393 (Invitrogen) to generate the baculovirus transfer vectors for COX-I and COX-II in a manner similar to the method of D. R. O'Reilly et al (Baculovirus Expression Vectors: A Laboratory Manual (1992)). Recombinant baculoviruses were isolated by transfecting 4 μg of baculovirus transfer vector DNA into SF9 insect cells ([…]) along with 200 ng of linearized baculovirus plasmid DNA by the calcium phosphate method. See M. D. Summers and G. E. Smith, A Manual of Methods for Baculovirus Vectors and Insect Cell Culture Procedures, Texas Agric. Exp. Station Bull. 1555 (1987). Recombinant viruses were purified by three rounds of plaque purification and high titer (10E7-10E8 pfu/ml), stocks of virus were prepared. For large scale production, SF9 insect cells were infected in 10 liter fermentors (0.5×10^6/ml) with the recombinant baculovirus stock such that the multiplicity of infection was 0.1. After 72 hours the cells were centrifuged and the cell pellet homogenized in Tris/Sucrose (50 mM: 25%, pH 8.0) containing 1% 3-[(3-cholamidopropyl)dimethylammonio]-1-propanesulfonate (CHAPS). The homogenate was centrifuged at 10,000×G for 30 minutes, and the resultant supernatant was stored at −80° C. before being assayed for COX activity.
(§2) COX activity was assayed as PGE2 formed/μg protein/time using an ELISA to detect the prostaglandin released. CHAPS-solubilized insect cell membranes containing the appropriate COX enzyme were incubated in a potassium phosphate buffer (50 mM, pH 8.0) containing epinephrine, phenol, and heme with the addition of arachidonic acid (10 μM). Compounds were pre-incubated with the enzyme for 10-20 minutes prior to the addition of arachidonic acid. Any reaction between the arachidonic acid and the enzyme was stopped after ten minutes at 37° C./room temperature by transferring 40 μl of reaction mix into 160 μl ELISA buffer and 25 μM indomethacin. The PGE2 formed was measured by standard ELISA technology (Cayman Chemical).
Background: An ELISA detects its analyte on a solid surface through an enzyme-linked reagent.

The test system of data set [3] is carrageenan-induced hyperalgesic foot withdrawal. The data set can be described thus: Rat Carrageenan-induced Analgesia Test. The data set is classed as in vivo. As to conditions: oral, 3 h after carrageenan. As to the method:
The analgesia test using rat carrageenan was performed with materials, reagents and procedures essentially as described by Hargreaves, et al., (Pain, 32, 77 (1988)). Male Sprague-Dawley rats were treated as previously described for the Carrageenan Foot Pad Edema test. Three hours after the injection of the carrageenan, the rats were placed in a special plexiglass container with a transparent floor having a high intensity lamp as a radiant heat source, positionable under the floor. After an initial twenty minute period, thermal stimulation was begun on either the injected foot or on the contralateral uninjected foot. A photoelectric cell turned off the lamp and timer when light was interrupted by paw withdrawal. The time until the rat withdraws its foot was then measured. The withdrawal latency in seconds was determined for the control and drug-treated groups, and percent inhibition of the hyperalgesic foot withdrawal determined.

The target in data set [4] is T2, Human COX I (Homo sapiens, UniProt P23219).
T2 construct: A 2.0 kb fragment containing the coding region of either human or murine COX-I or human or murine COX-II; made in house; host or cells: SF9 insect cells (recombinant baculovirus, transfer vector pVL1393)
T2 sequence (P23219 24-599): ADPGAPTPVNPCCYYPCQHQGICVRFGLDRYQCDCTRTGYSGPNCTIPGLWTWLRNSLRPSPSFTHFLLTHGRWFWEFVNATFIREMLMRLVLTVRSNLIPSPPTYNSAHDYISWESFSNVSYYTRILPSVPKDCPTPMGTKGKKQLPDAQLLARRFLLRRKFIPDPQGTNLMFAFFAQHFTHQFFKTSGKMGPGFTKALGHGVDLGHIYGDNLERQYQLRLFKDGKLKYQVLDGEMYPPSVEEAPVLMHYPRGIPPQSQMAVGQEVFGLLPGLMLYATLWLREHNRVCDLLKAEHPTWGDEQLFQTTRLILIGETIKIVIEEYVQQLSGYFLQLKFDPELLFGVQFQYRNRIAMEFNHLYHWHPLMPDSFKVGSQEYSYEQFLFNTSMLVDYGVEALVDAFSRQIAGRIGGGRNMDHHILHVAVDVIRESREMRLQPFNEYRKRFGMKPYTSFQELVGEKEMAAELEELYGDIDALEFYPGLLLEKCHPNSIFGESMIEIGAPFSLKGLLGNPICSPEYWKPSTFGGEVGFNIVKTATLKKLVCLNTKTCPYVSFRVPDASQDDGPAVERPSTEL
The data set can be described thus: COX I activity in vitro (PGE2 ELISA, recombinant enzyme). The data set is classed as biochemical. Conditions: arachidonic acid 10 μM, pre-incubation 10-20 minutes; read-out: Human COX I ID50. As to the method: as §1, §2

As a reminder, the melting point is the temperature of the solid-liquid transition. As to `CS(=O)(=O)c1ccc(-c2nc(C(F)(F)F)[nH]c2-c2ccc(F)cc2)cc1` [Example 1, 5-(4-Fluorophenyl)-4-(4-methylsulfonylphenyl)-2-trifluoromethyl-1H-imidazole], the melting point is 249 to 250 °C (dec.). Also, the “RAT PAW EDEMA % Inhibition” value in data set [1] came to 22%. Also, in data set [2], the IC50 amounted to 0.2 µM. Also, in data set [3] (30 mg/kg body weight), the “ANALGESIA % Inhibition” value came to 25%. In addition, in data set [4], the IC50 was over 100 µM.
`CS(=O)(=O)c1ccc(-c2nc(C(F)(F)F)[nH]c2-c2ccc(Br)s2)cc1` [Example 47, 5-(5-Bromothien-2-yl)-4-[4-(methylsulfonyl)phenyl]-2-(trifluoromethyl)-1H-imidazole] registered a melting point of 261 to 262 °C. The IC50 in data set [2] is 0.1 µM. Further, in data set [4], the IC50 was found to be 12.9 µM.
The corresponding values for `CN(C)c1ccc(-c2[nH]c(C(F)(F)F)nc2-c2ccc(S(C)(=O)=O)cc2)cc1` [Example 48, N,N-Dimethyl-4-[4-[4-(methylsulfonyl)phenyl]-2-(trifluoromethyl)-1H-imidazol-5-yl]benzenamine] are 248 to 251 °C, 8.7 µM and over 100 µM.
As to `CS(=O)(=O)c1ccc(-c2[nH]c(S)nc2-c2ccc(F)cc2)cc1` [Example 49, 4-(4-Fluorophenyl)-5-[4-(methylsulfonyl)phenyl]-1H-imidazole-2-thiol], the melting point lay in the range of 158 to 161 °C. Further, the IC50 in data set [2] was found to be 55 µM. In data set [4], the IC50 amounted to 10.8 µM.
Compound `CS(=O)(=O)c1ccc(-c2[nH]c(SCc3ccc4ccccc4n3)nc2-c2ccc(F)cc2)cc1` [Example 50, 2-[[[4-(4-Fluorophenyl)-5-[4-(methylsulfonyl)phenyl]-1H-imidazol-2-yl]thio]methyl]quinoline] yielded a melting point of 179 to 182 °C. For the same compound, in data set [2], the IC50 came to 1.5 µM. For the same compound, the IC50 in data set [4] is over 100 µM.
`CS(=O)(=O)c1ccc(-c2[nH]c(S(=O)(=O)Cc3ccccc3)nc2-c2ccc(F)cc2)cc1` [Example 51, 4-(4-Fluorophenyl)-5-[4-(methylsulfonyl)phenyl]-2-[(phenylmethyl)sulfonyl]-1H-imidazole] yielded a melting point of 211 to 213 °C. The IC50 in data set [2] stood at 1.7 µM. Further, in data set [4], the IC50 was over 100 µM.
In turn, `CSc1ccc(-c2[nH]c(C(F)(F)F)nc2-c2ccc(S(C)(=O)=O)cc2)cc1Cl` [Example 55, 5-[3-Chloro-4-(methylthio)phenyl]-4-[4-(methylsulfonyl)phenyl]-2-(trifluoromethyl)-1H-imidazole] returned a melting point of 255 to 257 °C. The IC50 in data set [2] was 0.3 µM. Also, in data set [4], the IC50 is over 100 µM.
Compound `CC(=O)n1c(C(F)(F)F)nc(-c2ccc(S(C)(=O)=O)cc2)c1-c1cc(C)cc(Cl)c1` [Example 58, 1-[5-(3-Chloro-5-methylphenyl)-4-[4-(methylsulfonyl)phenyl]-2-(trifluoromethyl)-1H-imidazol-1-yl]ethanone] registered a melting point of 257 °C. Also, the “RAT PAW EDEMA % Inhibition” value in data set [1] was found to be 14%. Moreover, the IC50 in data set [2] came to 0.2 µM. The IC50 in data set [4] was over 100 µM.
On to `CS(=O)(=O)c1ccc(-c2nc(C(F)(F)F)[nH]c2-c2cccs2)cc1` [Example 70, 4-[4-(Methylsulfonyl)phenyl]-5-(2-thiophenyl)-2-(trifluoromethyl)-1H-imidazole], for which the melting point lay within 95 to 97 °C. Also, in data set [1], the “RAT PAW EDEMA % Inhibition” value is on record as 27%. In data set [2], the IC50 is 1.4 µM. Further, the “ANALGESIA % Inhibition” value in data set [3] (50 mg/kg body weight) is recorded as 29* %. The IC50 in data set [4] was over 100 µM.
`CS(=O)(=O)c1ccc(-c2nc(C(F)(F)F)[nH]c2C2CCCCCC2)cc1` [Example 72, 5-[4-Cycloheptyl)-4-[4-(methylsulfonyl)phenyl]-2-(trifluoromethyl)-1H-imidazole] returned a melting point of 206 to 207 °C. The IC50 in data set [2] stood at 3 µM. Further, the IC50 in data set [4] is over 100 µM.
On the same counts, the results for `COCc1nc(-c2ccc(S(C)(=O)=O)cc2)c(-c2ccc(F)cc2)[nH]1` [Example 79, 5-(4-Fluorophenyl)-2-(methoxymethyl)-4-[4-(methylsulfonyl)-phenyl]-1H-imidazole] are 169 °C, 8.3 µM and over 100 µM.
On to `CC(=O)c1nc(-c2ccc(F)cc2)c(-c2ccc(S(C)(=O)=O)cc2)[nH]1` [Example 83, 1-[4-(4-Fluorophenyl)-5-[4-(methylsulfonyl)phenyl]-1H-imidazol-2-yl] ethanone], for which the melting point was in the range of 215 to 217 °C. For the same compound, the IC50 in data set [2] came out at 4.3 µM. In addition, the IC50 in data set [4] was over 100 µM.
On the same counts, the results for `CS(=O)(=O)c1ccc(-c2[nH]c(C(=O)CCc3ccccc3)nc2-c2ccc(F)cc2)cc1` [Example 85] are 227 to 231 °C, 0.4 µM and over 100 µM.
On the same counts, the results for `CS(=O)(=O)c1ccc(-c2[nH]c(C(=O)C(F)(F)F)nc2-c2ccc(F)cc2)cc1` [Example 89] are 291.7 °C, 5.3 µM and over 100 µM.
`CS(=O)(=O)c1ccc(-c2[nH]c(C(O)C(F)(F)F)nc2-c2ccc(F)cc2)cc1` (centres unmarked) [Example 90, 4-(4-Fluorophenyl)-5-(4-(methylsulfonyl)phenyl]-a-(trifluoromethyl)-1H-imidazole-2-methanol]: the melting point was 126 to 130 °C. In data set [2], the IC50 amounted to 3.9 µM. For the same compound, the IC50 in data set [4] is over 100 µM.
On the same counts, the results for `COC(C)c1nc(-c2ccc(F)cc2)c(-c2ccc(S(C)(=O)=O)cc2)[nH]1` (centres unmarked) [Example 94, 4-(4-Fluorophenyl)-2-(1-methoxyethyl)-5-[4-(methyl-sulfonyl)phenyl]-1H-imidazole] are 212 °C, 6.4 µM and over 100 µM.
On the same counts, the results for `CC(F)(F)c1nc(-c2ccc(F)cc2)c(-c2ccc(S(C)(=O)=O)cc2)[nH]1` [Example 95, 2-(1,1-Difluoroethyl)-4-(4-fluorophenyl)-5-[4-(methyl-sulfonyl)phenyl]-1H-imidazole] are 211 °C, 2.4 µM and over 100 µM.
